Structures can show the parent of a compound that is named as a salt.
What was measured:
[1] = system: formalin-induced pain (paw licking behavior); test: Rat formalin test (paw licking, acute and delayed/chronic phase); type: in vivo; settings: for Acute paw lick response, Mean / Chronic (delayed) paw lick response, Mean / delayed paw licking responses vs. control: 100 μM; for Acute paw lick response, Mean / Chronic (delayed) paw lick response, Mean / delayed paw licking responses vs. control / enhancement of the effects of ketamine 100 μM: Example 4; for Paw licking time, Acute, Mean / Paw licking time, Chronic, Mean: NaOH where added equimolar; for Paw licking time, Acute, Mean: acute phase 0-10 min after formalin; for Paw licking time, Chronic, Mean: delayed phase from 10 min after formalin; for enhancement of the effects of ketamine 100 μM: hydroxide combined with ketamine 100 μM; for delayed hind paw licking (marginal means), Mean: TAS2R ligand .5 mM
Description: In this test, effects are measured on both acute and delayed formalin-induced pain, as reflected in paw licking behavior.
Methods: All studies were performed at Psychogenics, Inc. (Tarrytown, NY). Male SD rats (Envigo) were used in the study. All rats were examined and weighed (about 200 g) prior to initiation of the study to assure adequate health and suitability. For the formalin test, rats were habituated for 30 min in observation chambers with cameras positioned underneath. After the pre-treatment time, animals received a subcutaneous injection into the plantar surface of the left hind-paw with 15 μl of 5% formalin using a Hamilton micro-syringe and a 30-gauge needle.
Rats were returned to the observation chamber and immediately observed for behavior. The total time spent licking, flinching or biting the treated hind-paw over the next 35 min was recorded and videos were scored by a trained observer blinded to the treatment group. The acute response was evaluated in 5 min intervals for 0-10 min, and the delayed response was evaluated from 10-35 or 10-40 min.
For this experiment, effects of ketamine alone vs. ketamine+NaOH were assessed at concentrations between 30 uM (μM) and […] vs. control. Secondary analyses evaluated relative effects of ketamine+NaOH vs. ketamine alone. Analyses were performed by between-group t-tests or multiway ANOVA as expected. For each experiment, outliers ±2SD from the group means were removed from the analyses as flagged in study reports.
Methods: Overall methods were the same as for Example 1. However, for this study, the concentration of ketamine was fixed at 100 μM across conditions, and the ratio of NaOH to ketamine was varied from 1:10 (0.1 ratio) to 1:2 (0.5 ratio) to 3:4 (0.75 ratio) to 1:1 (1.0 ratio). An ANOVA was conducted across ratios to determine statistical significance.
Methods: Formalin test methods were the same as for examples 1 and 2. […] Denatonium was additionally administered combined with Ketamine 100 μM.
In order to evaluate the specificity of the synergistic effect between ketamine and NaOH, formalin tests were evaluated in combination with other hydroxides, including Ca(OH)2 and KOH. […] Formalin tests were therefore conducted in the presence of 100 μM S-ketamine relative to racemic ketamine.

[2] = system: depression-related behaviors in SNL animals with chronic pain; test: Forced swim test in spinal nerve ligation (SNL) rats; type: in vivo, rat; settings: ketamine NaOH at 0.5 ratio, FIG. 5
From the text: Chronic pain may also lead to depressive symptoms that cause additional disability and may reflect an independent treatment target. Anti-depression effects may be modeled in rodents using behavioral measures including the forced swim test, which measures the time that rodents remain immobile when placed in water. In one model, chronic pain Is created by spinal nerve ligation (SNL) in which a ligation is placed around the left L5 nerve, which leads to hypersensitivity of the paw withdrawal threshold.
Methods: Male Sprague Dawley rats (about 150 g on arrival) from Envigo were used. Upon receipt animals were group housed for the remainder of their stay at PsychoGenics. […]
Spinal nerve ligation: Under general anesthesia with continuous inhalation of isoflurane, surgery was performed with aseptic procedures. […] Each rat was monitored until awake and moving freely around the recovery chamber. […]
Forced swim test: The forced swim (FS) test is considered to predict anti-depression effects. When rats are forced to swim in a small cylinder from which no escape is possible, they readily adopt a characteristic immobile posture and make no further attempts to escape except for small movements needed to prevent them from drowning. […] Immobility, climbing, and swimming behaviors were recorded every 5 sec for a total of 60 counts per subject. […]

CNC1(c2ccccc2Cl)CCCCC1=O (racemic) [Ketamine, Ketamine HCl]
Acute paw lick response, Mean [1]: 54.5
Chronic (delayed) paw lick response, Mean [1]: 196.4
delayed paw licking responses vs. control [1]: did not significantly reduce delayed responses
inhibition of delayed response ([1]; concentrations of ≥30 mM, all p<0.005): significant inhibition of delayed response
effects on acute response ([1]; doses of ≥100 mM, all p<0.001, suggesting non-specific behavioral effects): significant effects
Paw licking time, Acute, Mean ([1]; ketamine 30 μM): 55.20 s
Paw licking time, Chronic, Mean ([1]; ketamine 30 μM): 56.00 s
delayed response, post-hoc difference vs. control ([1]; ketamine 30 μM, one-way ANOVA): significant post-hoc differences vs. control
Paw licking time, Acute, Mean ([1]; ketamine 100 μM): 50.95 s
Paw licking time, Chronic, Mean ([1]; ketamine 100 μM): 140.71 s
Paw licking time, Acute, Mean ([1]; ketamine 300 μM): 40.50 s
Paw licking time, Chronic, Mean ([1]; ketamine 300 μM): 147.00 s
Paw licking time, Acute, Mean ([1]; ketamine 30 mM): 39.44 s
Paw licking time, Chronic, Mean ([1]; ketamine 30 mM): 49.88 s
Paw licking time, Acute, Mean ([1]; ketamine 100 mM): 0.11 s
Paw licking time, Chronic, Mean ([1]; ketamine 100 mM): 0.00 s
Paw licking time, Acute, Mean ([1]; ketamine 300 mM): 0.11 s
Paw licking time, Chronic, Mean ([1]; ketamine 300 mM): 0.00 s
immobility time [2]: significantly reduced immobility time
swimming time [2]: increased swimming time

[K+].[OH-] [KOH]
enhancement of the effects of ketamine 100 μM [1]: Neither Ca(OH)2 or KOH enhanced

CN[C@]1(c2ccccc2Cl)CCCCC1=O [S-ketamine]
Acute paw lick response, Mean [1]: 50.5
Chronic (delayed) paw lick response, Mean [1]: 120.6
delayed paw licking responses vs. control [1]: numeric decreases in delayed paw licking vs. control, but the differences were not statistically significant

CC[N+](CC)(CC(=O)Nc1c(C)cccc1C)Cc1ccccc1 [Denatonium, Denatonium benzoate]
delayed hyperalgesic response vs. control ([1]; 0.5 mM, p=0.029): significant reduction in hyperalgesia
delayed hind paw licking (marginal means), Mean [1]: 161.0 s

[Ca+2].[OH-].[OH-] [Ca(OH)2]
enhancement of the effects of ketamine 100 μM [1]: Neither Ca(OH)2 or KOH enhanced

C=C[C@H]1C[N@@]2CC[C@H]1C[C@@H]2[C@@H](O)c1ccnc2ccc(OC)cc12 [Quinidine, Quinidine gluconate]
delayed hind paw licking (marginal means), Mean [1]: 288.6 s

From US20250057788A1, “COMPOSITIONS AND METHODS FOR TREATMENT OF CHRONIC PAIN AND DEPRESSION” (priority 2023, published 2025)
